# Results taken from US20230029496A1, “AMINO ACID ALTERNATIVE CURING SYSTEM” (THE TEXAS A&M UNIVERSITY SYSTEM, priority 2019, published 2023).
# Values joined by “and” are separate entries in the source; they are usually repeats but may differ in a detail not shown here. Equal values may be shown once. Marks after values point to notes of the source that are not given here.
# Experiments:
# [1] = test system: Nitric Oxide Synthase (NOS) system; experiment: Cure efficiency (NO-heme, total heme, nitrosylation) of cooked pre-rigor pork semimembranosus muscle (first study); type: biochemical; conditions: for NO-Heme / Total Heme: ppm acid hematin
# Protocol: Cooked meat samples were subjected to analysis to determine the degree of nitrosylation of residual nitrite, the procedure set forth by Pearson and Tauber (Pearson and Tauber, 1984) from Hornsey's procedure for analyzing small samples was used to analyze sample supernatant and pellet. 2 mL or 2 g of the samples were treated with acetone to measure NO-heme concentration and separately 2 mL or 2 g of the samples were treated with acetone and hydrochloric acid to measure total heme concentration in a 1 cm quartz cuvette. NO-heme concentration (ppm acid hematin) was determined using a spectrophotometer (2100 Series Spectrophotometer, Unico, Dayton, N.J.) by reading samples at 540 nm. Total heme concentration (ppm acid hematin) was determined at 640 nm determined nitrosylation, which indicated how well varying concentrations of L-arginine affected the NOS system's ability to cure, known as cure efficiency. This procedure measured how much myoglobin was converted to nitroso-hemochromagen, the cured meat color, and the level of conversion compared to all pigmentation within the sample.
# Curing efficiency or nitrosylation is calculated as the percentage conversion of NO-heme to total heme. Cure efficiency is the percentage of total pigment converted to nitroso pigment and indicated the degree of cured color fading. Cured meat pigment is extracted in a solution of 80% acetone and 20% water that extracts cured pigment heme. Total heme pigments are extracted using an acidified acetone solution that extracts heme from all heme proteins as first used by Hornsey. NO-heme concentration (as ppm acid hematin)=sample A540×290 determines the specific cure color pink from the rest of the heme pigmentation of the sample. Total heme concentration (ppm acid hematin)=sample A640×680 determines the total heme pigmentation of the sample. Cure efficiency (%)=(ppm of nitrosoheme […]ppm of total pigment)×100 and indicates how much of the product is cured and holds the cured pink stability once cooked.
# Procedures • 1. Do all procedures in subdued light to reduce fading of pigment. • 2. Weigh out 2.0 g minced lean meat sample in a 50-mL polypropylene centrifuge tube. • 3. Pipette 9.0 mL acetone-a into 50-mL tube, to obtain acetone concentration of 80%. • 4. Mix thoroughly with a probe-type homogenizer or a glass rod. • 5. Cap the tube to minimize evaporation of acetone, and mix by gentle swirling. • 6. Let stand 10 minutes in the dark, then filter through medium-fast filter paper into a glass test tube. • 7. Transfer filtrate into a 1-cm quartz cuvette and read absorbance at 540 nm. (Avoid use of disposable plastic cuvettes. They become opaque upon exposure to acetone). Calculate nitroso pigment concentration as previously described. • 8. Prepare another 2.0-g sample, using acetone-b. • 9. Macerate and hold 1 hour in the dark before filtering. • 10. Filter the extract as before, and read absorbance at 640 nm. Calculate total pigment and cure efficiency as previously described.
# [2] = pH after immersion, pre- and post-rigor pork semimembranosus muscle (Example 13); type: physicochemical
# NOS system = experiment: NO-heme, total heme, nitrosylation and cured color in test tube pork loin sausages (Example 11)
# [3] = test system: Nitric Oxide Synthase (NOS) system; experiment: NO-heme, total heme, nitrosylation in plastic casing test tube ground pork loin sausages (Example 10); conditions: for Nitrosylation / NO-Heme / Total Heme: cooked; for NO-Heme / Total Heme: ppm acid hematin
# Protocol: The desired cured color could not initially be generated in a variety of processed meat products in a pilot plant setting. […] Pork loins (N=2) procured from a local meat distributor (Mar. 18, 2019) were used. Eight pounds of pork loins were ground (½″ then ¼″ plate) and weighed out in one pound portions. Plastic waterproof casings (2″ diameter) were clipped at one end. One pound of ground pork loin was placed in the casing and two pounds of brine (L-arginine concentration 7498 ppm) were added and the open end of the casing clipped. Based on laboratory test tube studies, meat samples would absorb 20-25% of the solution which equates to absorption of approximately 1500 ppm of L-arginine. Each plastic casing contained the same proportion of meat and brine as conducted during previous laboratory experiments (Table 12). A control was manufactured by substituting distilled water for the L-arginine brine.
# After thermal processing the plastic casing test tubes were cut open and emptied into beakers, then separated into residue (meat particles) and supernatant (liquid) via paper filtration into 50 mL conical tubes for collection and subsequent analysis for residual nitrite (supernatant) and cured pigment formation/nitrosylation (meat residue).
# Nitrosylation and residual nitrite analyses was performed under reduced light to avoid loss of pigmentation. L-arginine treated test tube pork sausage averaged 53.12 to 72.30 ppm of residual nitrite in the cooked meat pellet with percent nitrosylation ranging from 33 to 60 percent (Table 13). The brine was formulated to deliver 1500 ppm ingoing L-arginine at 25% absorption into the meat after two hours of immersion in the brine solution.
# [4] = 2 mM L-arginine, cooked supernatant
# [5] = 4 mM L-arginine, cooked supernatant
# [6] = 8 mM L-arginine, cooked supernatant
# [7] = 16 mM L-arginine, cooked pellet
# [8] = 16 mM L-arginine, cooked supernatant
# [9] = 32 mM L-arginine, cooked pellet
# [10] = 32 mM L-arginine, cooked supernatant
# [11] = High (5000 ppm) L-arginine, 8 days post thermal processing
# [12] = High (5000 ppm) L-arginine, one day after thermal processing
compound,measurement,setting,value
N=C(N)NCCC[C@H](N)C(=O)O [L-arginine],Nitrosylation (Cure Efficiency),"[1]; 2 mM L-arginine, cooked pellet",46.51% and 46.51^ab %
same,NO-Heme,"[1]; 2 mM L-arginine, cooked pellet",8.70^a ppm
same,Total Heme,"[1]; 2 mM L-arginine, cooked pellet",64.77 ppm and 64.77^a ppm
same,Nitrosylation (Cure Efficiency),[1]; [4],125.52^a %
same,NO-Heme,[1]; [4],43.94^a ppm
same,Total Heme,[1]; [4],24.22 ppm and 24.22^ab ppm
same,Nitrosylation (Cure Efficiency),"[1]; 4 mM L-arginine, cooked pellet",74.27% and 74.27^ab %
same,NO-Heme,"[1]; 4 mM L-arginine, cooked pellet",7.77^a ppm
same,Total Heme,"[1]; 4 mM L-arginine, cooked pellet",35.87^ab ppm
same,Nitrosylation (Cure Efficiency),[1]; [5],155.68^a %
same,NO-Heme,[1]; [5],21.09^a ppm
same,Total Heme,[1]; [5],34.17 ppm and 34.17^ab ppm
same,Nitrosylation (Cure Efficiency),"[1]; 8 mM L-arginine, cooked pellet",70.13% and 70.13^ab %
same,NO-Heme,"[1]; 8 mM L-arginine, cooked pellet",9.33^a ppm
same,Total Heme,"[1]; 8 mM L-arginine, cooked pellet",33.44^ab ppm
same,Nitrosylation (Cure Efficiency),[1]; [6],108.99^a %
same,NO-Heme,[1]; [6],16.44^a ppm
same,Total Heme,[1]; [6],70.38 ppm and 70.38^a ppm
same,Nitrosylation (Cure Efficiency),[1]; [7],97.82% and 97.82^ab %
same,NO-Heme,[1]; [7],11.69^a ppm
same,Total Heme,[1]; [7],36.04^ab ppm
same,Nitrosylation (Cure Efficiency),[1]; [8],110.11^a %
same,NO-Heme,[1]; [8],16.73^a ppm
same,Total Heme,[1]; [8],20.14 ppm and 20.14^ab ppm
same,Nitrosylation (Cure Efficiency),[1]; [9],156.72% and 156.72^a %
same,NO-Heme,[1]; [9],13.05^a ppm
same,Total Heme,[1]; [9],54.40^ab ppm
same,Nitrosylation (Cure Efficiency),[1]; [10],50.48^a %
same,NO-Heme,[1]; [10],16.86^a ppm
same,Total Heme,[1]; [10],31.67 ppm and 31.67^ab ppm
same,cure efficiency,"[1]; cooked supernatant, at all L-arginine concentrations",over 100%
same,pH after 2 hours of sample immersion,"[2]; 2 mM L-arginine, post rigor cooked",5.77^a
same,pH after 2 hours of sample immersion,"[2]; 2 mM L-arginine, post rigor raw",5.52^a
same,pH after 2 hours of sample immersion,"[2]; 2 mM L-arginine, pre-rigor cooked",6.03^a
same,pH after 2 hours of sample immersion,"[2]; 2 mM L-arginine, pre-rigor raw",5.94^a
same,pH after 2 hours of sample immersion,"[2]; 4 mM L-arginine, post rigor cooked",5.75^a
same,pH after 2 hours of sample immersion,"[2]; 4 mM L-arginine, post rigor raw",5.52^a
same,pH after 2 hours of sample immersion,"[2]; 4 mM L-arginine, pre-rigor cooked",6.01^a
same,pH after 2 hours of sample immersion,"[2]; 4 mM L-arginine, pre-rigor raw",6.04^a
same,pH after 2 hours of sample immersion,"[2]; 8 mM L-arginine, post rigor cooked",5.66^a
same,pH after 2 hours of sample immersion,"[2]; 8 mM L-arginine, post rigor raw",5.53^a
same,pH after 2 hours of sample immersion,"[2]; 8 mM L-arginine, pre-rigor cooked",5.99^a
same,pH after 2 hours of sample immersion,"[2]; 8 mM L-arginine, pre-rigor raw",5.93^a
same,pH after 2 hours of sample immersion,"[2]; 16 mM L-arginine, post rigor cooked",5.75^a
same,pH after 2 hours of sample immersion,"[2]; 16 mM L-arginine, post rigor raw",5.53^a
same,pH after 2 hours of sample immersion,"[2]; 16 mM L-arginine, pre-rigor cooked",6.00^a
same,pH after 2 hours of sample immersion,"[2]; 16 mM L-arginine, pre-rigor raw",5.91^a
same,pH after 2 hours of sample immersion,"[2]; 32 mM L-arginine, post rigor cooked",5.76^a
same,pH after 2 hours of sample immersion,"[2]; 32 mM L-arginine, post rigor raw",5.56^a
same,pH after 2 hours of sample immersion,"[2]; 32 mM L-arginine, pre-rigor cooked",5.97^a
same,pH after 2 hours of sample immersion,"[2]; 32 mM L-arginine, pre-rigor raw",5.93^a
same,sample pH after the immersion phase,"[2]; range over pre- and post-rigor, raw and cooked, 0-32 mM",5.51-6.04
same,NO-Heme,NOS system; [11],14.59^a ppm
same,Nitrosylation,NOS system; [11],38.65^a %
same,Total Heme,NOS system; [11],37.4^a ppm
same,NO-Heme,NOS system; [12],13.43^b ppm
same,Nitrosylation,NOS system; [12],60.58^b %
same,Total Heme,"NOS system; Low (1000 ppm) L-arginine, 8 days post thermal processing",28.56^b ppm
same,Nitrosylation,"NOS system; Low (1000 ppm) L-arginine, one day after thermal processing",37.05^a %
same,decrease in nitrosylation,NOS system; during 8 days of refrigerated vacuum packaged storage,38-45%
same,Nitrosylation,[3]; 10% L-arginine brine,33.71^ab %
same,NO-Heme,[3]; 10% L-arginine brine,7.63^bc ppm
same,Total Heme,[3]; 10% L-arginine brine,22.66^a ppm
same,Nitrosylation,[3]; 15% L-arginine brine,45.19^a %
same,NO-Heme,[3]; 15% L-arginine brine,8.70^b ppm
same,Total Heme,[3]; 15% L-arginine brine,19.26^a ppm
same,Nitrosylation,[3]; 20% L-arginine brine,36.99^ab %
same,NO-Heme,[3]; 20% L-arginine brine,8.31^b ppm
same,Total Heme,[3]; 20% L-arginine brine,22.66^a ppm
same,Nitrosylation,[3]; 25% L-arginine brine,60.13^a %
same,NO-Heme,[3]; 25% L-arginine brine,16.24^a ppm
same,Total Heme,[3]; 25% L-arginine brine,28.56^a ppm
same,percent nitrosylation,[3]; range over brine additions 10-25%,33 to 60%
